Experimental findings from US8501802B2, “Co-crystals of duloxetine and COX-INHIBITORs for the treatment of pain” (Laboratorios del Dr. Esteve, S.A., priority 2008, dated 2013) are described below.

Counter-ions that a name gives are not always drawn.

For the data set the following is noted: for Δ % weight 24 h / Δ % weight 48 h / Δ % weight 6 days: 64±5% relative humidity, 22±2° C.; for KF (t = 0): Karl Fischer value at the beginning of the study; for Hygroscopicity class according to the scale: PharmaEuropa scale of % incorporation of water. The procedure:
The objective was to measure the hygroscopicity of the salts of the present invention, and comparing it with the one of the known salt of each counter part of the salts. The increasing of the weight will be measured in order to evaluate the incorporation of water in the samples, together with the Karl Fischer factor.
The scale is the following:
Preparation of the Humidity chamber: A supersaturated solution of sodium nitrite (45 g/50 ml) is prepared and introduced in a humidification chamber (samplaterecord). The chamber is maintained at a temperature of 22±2° C. during 24 hours before use, and humidity is controlled each day.
The variation of the weight is controlled and the following percentage is calculated: Δ%weight=(Pn−P1)/P1×100 wherein: P1 is the initial weight, Pn is the weight measured for the sample.

Take `CNCC[C@H](Oc1cccc2ccccc12)c1cccs1.CNCC[C@H](Oc1cccc2ccccc12)c1cccs1.COc1ccc2cc([C@H](C)C(=O)O)ccc2c1.COc1ccc2cc([C@H](C)C(=O)O)ccc2c1.COc1ccc2cc([C@H](C)C(=O)O)ccc2c1`: the “Δ % weight 24 h” value was determined as 0%, the “Δ % weight 48 h” value is 0.09%, the “Δ % weight 6 days” value is reported as 0.13% and the “KF (t = 0)” value was determined as 0.36. The “Hygroscopicity class according to the scale” value (from here on “Hygroscopicity class according”) is given as “not hygroscopic”.

In the case of `COc1ccc2cc([C@H](C)C(=O)[O-])ccc2c1.[Na+]` [sodium naproxen], the “Δ % weight 24 h” value amounted to 14.39%, the “Δ % weight 48 h” value came to 14.39%, the “Δ % weight 6 days” value was 14.3% and the “KF (t = 0)” value came out at 1.04. The “Hygroscopicity class according” value is “hygroscopic”.

`CNCC[C@H](Oc1cccc2ccccc12)c1cccs1` [Duloxetine HCl]: the “Δ % weight 24 h” value is on record as 0.19%, the “Δ % weight 48 h” value is 0.26%, the “Δ % weight 6 days” value was 0.18% and the “KF (t = 0)” value is 0.33. Further, the “Hygroscopicity class according” value is on record as “not hygroscopic”.
